# Experiments:
# C57BL/6JxFVB hybrid mice [1] = experiment: White adipose tissue adipocyte size and number (perirenal fat pad); assay type: in vivo; details: for White adipose tissue cell number: data not shown; for White adipose tissue adipocyte cell size: perirenal fat pad, 300 and 3000 combined
# Protocol: (§1) Some measurements included only control and one or two dose groups and could therefore not be analyzed as dose–responses. GTT was therefore evaluated by repeated-measures or nested (to account for litter covariance) two-way ANOVAs (Graphpad Prism 5.0, R) to detect differences at the different time points and between the areas under the curve (AUC). Activity measurement, ucp1 expression, WAT adipocyte size and the proxy for cell number were also tested with a nested ANOVA (R). Differences in distribution of BAT histopathology scores between experimental groups were tested for statistical significance in a two-tailed Fisher’s exact test.
# [2] = Tolerable daily intake and human dietary exposure; set-up: species or system humans
# C57BL/6JxFVB hybrid mice [3] = experiment: Tibia composition/function by pQCT; assay type: in vivo; details: for Emax: Mus musculus
# ucp1 = ucp1 gene expression in brown adipose tissue (qPCR); assay type: in vivo, mice; details: males and females; 300 and 3000 µg/kg vs control; data not shown
# Protocol: as §1
# C57BL/6JxFVB hybrid mice [4] = experiment: Serum lipids and glucose; details: for Emax: Mus musculus
# C57BL/6JxFVB hybrid mice [5] = experiment: Histopathology of brown adipose tissue; assay type: in vivo
# Protocol: as §1
# C57BL/6JxFVB hybrid mice [6] = experiment: Glucose tolerance test; assay type: in vivo; details: males and females; 300 µg/kg vs control; 19 weeks; data not shown
# Protocol: (§2) One week later, at 20 weeks of age, an insulin tolerance test (ITT) was performed in the same animals as used for the GTT. Mice were not fasted to avoid low glucose baseline levels which, after an insulin injection, could lead to hypoglycemia. At the start of the experiment, a baseline blood sample was taken (0 min). […] The experiment was performed over two morning sessions, with 1.75 h between the first and last tested animal in each session, and animals were treated in a random order. At the age of 22–25 weeks, control and 300 µg/kg bw/d animals were used for a spontaneous locomotor activity test. After an acclimatization period of minimal 6 h, activity of the mice was continuously registered on four parallel platforms for 36 h (males) or 60 h (females), starting at the beginning of the dark phase (6.30 PM) of the first day.
# as §1, with “Differences in distribution of BAT histopathology scores between experimental groups were tested for statistical significance in a two-tailed Fisher’s exact test.” left out
# C57BL/6JxFVB hybrid mice [7] = experiment: Spontaneous locomotor activity test; assay type: in vivo; details: males and females; 300 µg/kg vs control; data not shown
# Protocol: as §2
# as §1, with “Differences in distribution of BAT histopathology scores between experimental groups were tested for statistical significance in a two-tailed Fisher’s exact test.” left out
# [8] = females, 300 and 3000 combined, p = 0.097 vs control
# [9] = males, 300 and 3000 combined, p < 0.05 vs control
compound,measurement,setting,value
"O=C(O)C(F)(F)C(F)(F)C(F)(F)C(F)(F)C(F)(F)C(F)(F)C(F)(F)F [PFOA, Perfluorooctanoic acid]",White adipose tissue cell number,C57BL/6JxFVB hybrid mice [1]; females,did not differ
same,White adipose tissue adipocyte cell size,"C57BL/6JxFVB hybrid mice [1]; females, p < 0.05",significantly decreased
same,White adipose tissue cell number,C57BL/6JxFVB hybrid mice [1]; males,no differences
same,White adipose tissue adipocyte cell size,C57BL/6JxFVB hybrid mice [1]; males,no differences
same,Factor by which the lowered TDI is higher than the human dietary exposure range in infants,[2],15
same,TDI when applying the developmental BMDL of 46 µg/kg bw/d,[2],230 ng/kg bw/d
same,Tibia ability to resist torsion: BMDL,"C57BL/6JxFVB hybrid mice [3]; F1 females, CES 5 %",917 µg/kg bw/d
same,Tibia ability to resist torsion: BMDU,"C57BL/6JxFVB hybrid mice [3]; F1 females, CES 5 %","10,316 µg/kg bw/d"
same,Tibia bending strength: BMDL,"C57BL/6JxFVB hybrid mice [3]; F1 females, CES 5 %",888 µg/kg bw/d
same,Tibia bending strength: BMDU,"C57BL/6JxFVB hybrid mice [3]; F1 females, CES 5 %",3371 µg/kg bw/d
same,Tibia cortical density: BMDL,"C57BL/6JxFVB hybrid mice [3]; F1 females, CES 5 %",2866 µg/kg bw/d
same,Tibia cortical density: BMDU,"C57BL/6JxFVB hybrid mice [3]; F1 females, CES 5 %",6949 µg/kg bw/d
same,Tibia trabecular area: BMDL,"C57BL/6JxFVB hybrid mice [3]; F1 females, CES 5 %",914 µg/kg bw/d
same,Tibia trabecular area: BMDU,"C57BL/6JxFVB hybrid mice [3]; F1 females, CES 5 %",3037 µg/kg bw/d
same,Tibia cortical density: BMDL,"C57BL/6JxFVB hybrid mice [3]; F1 males, CES 5 %",2635 µg/kg bw/d
same,Tibia cortical density: BMDU,"C57BL/6JxFVB hybrid mice [3]; F1 males, CES 5 %","27,520 µg/kg bw/d"
same,Emax,"C57BL/6JxFVB hybrid mice [3]; F1 females, read-out: Tibia ability to resist torsion: max effect size",-8.3%
same,Emax,"C57BL/6JxFVB hybrid mice [3]; F1 females, read-out: Tibia bending strength: max effect size",-9.9%
same,Emax,"C57BL/6JxFVB hybrid mice [3]; F1 females, read-out: Tibia cortical density: max effect size",-3.7%
same,Emax,"C57BL/6JxFVB hybrid mice [3]; F1 females, read-out: Tibia trabecular area: max effect size",-10%
same,Emax,"C57BL/6JxFVB hybrid mice [3]; F1 males, read-out: Tibia cortical density: max effect size",-3.4%
same,ucp1 expression in brown adipose tissue,ucp1,did not show an effect
same,Serum triglycerides: BMDU/BMDL,C57BL/6JxFVB hybrid mice [4]; F1 females,100
same,Serum cholesterol: BMDL,"C57BL/6JxFVB hybrid mice [4]; F1 females, CES 5 %",402 µg/kg bw/d
same,Serum cholesterol: BMDU,"C57BL/6JxFVB hybrid mice [4]; F1 females, CES 5 %",1284 µg/kg bw/d
same,Serum triglycerides: BMDL,"C57BL/6JxFVB hybrid mice [4]; F1 females, CES 5 %",6.2 µg/kg bw/d
same,Serum triglycerides: BMDU,"C57BL/6JxFVB hybrid mice [4]; F1 females, CES 5 %",623 µg/kg bw/d
same,Emax,C57BL/6JxFVB hybrid mice [4]; read-out: Serum cholesterol: max effect size,-20%
same,Emax,C57BL/6JxFVB hybrid mice [4]; read-out: Serum triglycerides: max effect size,-27%
same,Brown adipose tissue (interscapular fat pad) histopathology,"C57BL/6JxFVB hybrid mice [5]; females vs control females, p = 0.097",trend for lipid depletion
same,Brown adipose tissue lipid accumulation: count of individuals with Grade 3,C57BL/6JxFVB hybrid mice [5]; [8],4
same,"Brown adipose tissue lipid accumulation: count of individuals with Grades 1, 2",C57BL/6JxFVB hybrid mice [5]; [8],14
same,Brown adipose tissue (interscapular fat pad) histopathology,C57BL/6JxFVB hybrid mice [5]; males vs control males,significant lipid accumulation
same,"Brown adipose tissue lipid accumulation: count of individuals with Grades 1, 2, 3",C57BL/6JxFVB hybrid mice [5]; [9],4
same,"Brown adipose tissue lipid accumulation: count of individuals with Grades 4, 5, 6",C57BL/6JxFVB hybrid mice [5]; [9],13
same,Glucose homeostasis: GTT,C57BL/6JxFVB hybrid mice [6],did not show an effect
same,Energy expenditure: physical activity,C57BL/6JxFVB hybrid mice [7],did not show an effect

# Source: paper PMC4754331, “Programming of metabolic effects in C57BL/6JxFVB mice by in utero and lactational exposure to perfluorooctanoic acid” (Archives of Toxicology, 2015)
